IC50 data for 23 compounds are collected here from US10696639B2, “Heterocyclic compounds as HIV protease inhibitors” (Merck Sharp & Dohme Corp., priority 2016, dated 2020).

In the test the target is T1, wild-type HIV-1 protease (Human immunodeficiency virus type 1 group M subtype B, UniProt P04585).
T1 construct: Escherichia coli expressed wild-type HIV-1 protease protein; made in house; host or cells: Escherichia coli
The test can be described thus: Assay for Inhibition of Microbial Expressed HIV Protease. Format: biochemical. Conditions: E. coli expressed wild-type HIV-1 protease, peptide substrate cleavage, LC-MS readout; mean of at least two independent experiments; read-out: HIV Pr Enzyme HIV1 PR IC50. The method, then: Assay for Inhibition of Microbial Expressed HIV Protease
Inhibition of Escherichia coli expressed wild-type HIV-1 protease protein was carried out with a peptide substrate [Val-Ser-Gln-Asn-(βnaphtyl)Ala-Pro-Ile-Val]. The inhibitor compound was preincubated with HIV-1 protease enzyme in assay buffer (50 mM sodium acetate, pH 5.5, 100 mM NaCl, and 0.1% BSA) for 30 minutes at room temperature. Peptide substrate was added to […] in a total volume of 20 μL containing 20 pM HIV-1 protease (final) after which the reaction was incubated for 1 hour at 30° C. The reaction was quenched by the addition of formic acid and HIV protease inhibitor indinavir to 0.012% and 150 nM final concentrations, respectively. Product formation was determined after separation of product and substrate on a ZORBAX Eclipse XDB-C18 column (Aligent Technologies, Santa Clara, Calif., USA) connected to an API 4000™ mass spectrometer (AB Sciex, Pte. Ltd., Concord Ontario, Canada) with multiple reaction monitoring (transitions were 644.5/428.9 and 615.4/422.2 (M1/M3) for product and indinavir respectively). The extent of inhibition of the reaction was determined from the peak area of the products. Analysis of the products, independently synthesized, provided quantitation standards and confirmation of the product composition.
Broadly, the IC50 is the concentration that gives 50% inhibition. Take `COC(=O)N[C@@H](Cc1ccc(OC)cc1)C(=O)N[C@@H](C)CCCN1C(=N)N[C@](CC(C)C)(c2ccccc2)C1=O` [Example 1, N-{(1S)-4-[(4R)-2-imino-4-(2-methylpropyl)-5-oxo-4-phenylimidazolidin-1-yl]-1-methylbutyl}-N-alpha-(methoxycarbonyl)-O-methyl-L-tyrosinamide]: the IC50 amounted to 0.018 µM. The result for `N=C1NC(c2ccccc2)(c2ccccc2)C(=O)N1CCCCNC(=O)[C@@H](N)Cc1ccccc1` [Example 2, N-[4-(2-imino-5-oxo-4,4-diphenylimidazolidin-1-yl)butyl]-L-phenylalaninamide] reads 0.011 µM. The result for `CC(=O)N[C@@H](Cc1ccccc1)C(=O)NCCCCN1C(=N)NC(c2ccccc2)(c2ccccc2)C1=O` [Example 3, N-alpha-acetyl-N-[4-(2-imino-5-oxo-4,4-diphenylimidazolidin-1-yl)butyl]-L-phenylalaninamide] reads 0.008 µM; that for `COC(=O)N[C@@H](Cc1ccccc1)C(=O)NCCCCN1C(=N)NC(c2ccccc2)(c2ccccc2)C1=O` [Example 4, N-[4-(2-imino-5-oxo-4,4-diphenylimidazolidin-1-yl)butyl]-N-alpha-(methoxycarbonyl)-L-phenylalaninamide], 0.01 µM; that for `N=C1NC(c2ccccc2)(c2ccccc2)C(=O)N1CCCCNC(=O)[C@@H](N)CCc1ccccc1` [Example 5, (2S)-2-amino-N-[4-(2-imino-5-oxo-4,4-diphenylimidazolidin-1-yl)butyl]-4-phenylbutanamide], 0.006 µM. The result for `CCOC(=O)N[C@@H](Cc1ccccc1)C(=O)NCCCCN1C(=N)NC(c2ccccc2)(c2ccccc2)C1=O` [Example 6, N-alpha-(ethoxycarbonyl)-N-[4-(2-imino-5-oxo-4,4-diphenylimidazolidin-1-yl)butyl]-L-phenylalaninamide] reads 0.004 µM. `COC(=O)N[C@@H](Cc1ccccc1)C(=O)N[C@@H](C)CCCN1C(=N)NC(c2ccccc2)(c2ccccc2)C1=O` [Example 7, N-[(1S)-4-(2-imino-5-oxo-4,4-diphenylimidazolidin-1-yl)-1-methylbutyl]-N-alpha-(methoxycarbonyl)-L-phenylalaninamide]: the IC50 was 0.002 µM.

For the compound `COC(=O)N[C@@H](Cc1cccnc1)C(=O)NCCCCN1C(=N)NC(c2ccccc2)(c2ccccc2)C1=O` [Example 8, methyl [(1S)-2-{[4-(2-imino-5-oxo-4,4-diphenylimidazolidin-1-yl)butyl]amino}-2-oxo-1-(pyridin-3-ylmethyl)ethyl]carbamate], the IC50 worked out at 0.012 µM. With `N=C1NC(c2ccccc2)(c2ccccc2)C(=O)N1CCCCNC(=O)[C@@H](N)Cc1cccnc1` [Example 9, N-[4-(2-imino-5-oxo-4,4-diphenylimidazolidin-1-yl)butyl]-3-pyridin-3-yl-L-alaninamide], the IC50 was determined as 0.031 µM.

As to `N=C1NC(c2ccccc2)(c2ccccc2)C(=O)N1CCCCNC(=O)[C@@H](N)Cc1ccncc1` [Example 10, N-[4-(2-imino-5-oxo-4,4-diphenylimidazolidin-1-yl)butyl]-3-pyridin-4-yl-L-alaninamide], the IC50 stood at 0.034 µM.

Take `COC(=O)N[C@@H](Cc1ccccc1)C(=O)N[C@@H](C)CCCN1C(=N)NC(c2ccc(F)cc2)(c2ccc(F)cc2)C1=O` [Example 11, N-{(1S)-4-[4,4-bis(4-fluorophenyl)-2-imino-5-oxoimidazolidin-1-yl]-1-methylbutyl}-N-alpha-(methoxycarbonyl)-L-phenylalaninamide]: the IC50 turned out to be 0.007 µM.

Turning to `COC(=O)N[C@@H](Cc1ccccn1)C(=O)NCCCCN1C(=N)NC(c2ccccc2)(c2ccccc2)C1=O` [Example 12, methyl [(1S)-2-{[4-(2-imino-5-oxo-4,4-diphenylimidazolidin-1-yl)butyl]amino}-2-oxo-1-(pyridin-2-ylmethyl)ethyl]carbamate], the IC50 was found to be 0.021 µM. The figure for `COC(=O)N[C@@H](Cc1ccncc1)C(=O)NCCCCN1C(=N)NC(c2ccccc2)(c2ccccc2)C1=O` [Example 13, methyl [(1S)-2-{[4-(2-imino-5-oxo-4,4-diphenylimidazolidin-1-yl)butyl]amino}-2-oxo-1-(pyridin-4-ylmethyl)ethyl]carbamate] is 0.007 µM; for `N=C1NC(c2ccccc2)(c2ccccc2)C(=O)N1CCCCCNC(=O)[C@@H](N)Cc1ccccc1` [Example 14, N-[5-(2-imino-5-oxo-4,4-diphenylimidazolidin-1-yl)pentyl]-L-phenylalaninamide] it is 0.067 µM. The result for `COC(=O)N[C@@H](Cc1ccccc1)C(=O)NCCCCCN1C(=N)NC(c2ccccc2)(c2ccccc2)C1=O` [Example 15, N-[5-(2-imino-5-oxo-4,4-diphenylimidazolidin-1-yl)pentyl]-N-alpha-(methoxycarbonyl)-L-phenylalaninamide] reads 0.098 µM; that for `CC(C)CC1(c2ccccc2)NC(=N)N(CCCCNC(=O)[C@@H](N)Cc2ccccc2)C1=O` (stereo partly drawn) [Example 16, N-{4-[2-imino-4-(2-methylpropyl)-5-oxo-4-phenylimidazolidin-1-yl]butyl}-L-phenylalaninamide], 0.019 µM. The figure for `COC(=O)N[C@@H](Cc1ccccc1)C(=O)NCCCCN1C(=N)NC(CC(C)C)(c2ccccc2)C1=O` (stereo partly drawn) [Example 17, N-{4-[2-imino-4-(2-methylpropyl)-5-oxo-4-phenylimidazolidin-1-yl]butyl}-N-alpha-(methoxycarbonyl)-L-phenylalaninamide] is 0.02 µM; for `CC(C)CCC1(c2ccccc2)NC(=N)N(CCCCNC(=O)[C@@H](N)Cc2ccccc2)C1=O` (stereo partly drawn) [Example 18, N-{4-[2-imino-4-(3-methylbutyl)-5-oxo-4-phenylimidazolidin-1-yl]butyl}-L-phenylalaninamide] it is 0.025 µM. Consider `COC(=O)N[C@@H](Cc1ccccc1)C(=O)NCCCCN1C(=N)NC(CCC(C)C)(c2ccccc2)C1=O` (stereo partly drawn) [Example 19, N-{4-[2-imino-4-(3-methylbutyl)-5-oxo-4-phenylimidazolidin-1-yl]butyl}-N-alpha-(methoxycarbonyl)-L-phenylalaninamide], for which the IC50 turned out to be 0.024 µM. As for `COC(=O)N[C@@H](Cc1ccncc1)C(=O)NCCCCCN1C(=N)NC(c2ccccc2)(c2ccccc2)C1=O` [Example 20, methyl [(1S)-2-{[5-(2-imino-5-oxo-4,4-diphenylimidazolidin-1-yl)pentyl]amino}-2-oxo-1-(pyridin-4-ylmethyl)ethyl]carbamate], the IC50 was found to be 0.091 µM. The figure for `COC(=O)N[C@@H](Cc1ccncc1)C(=O)NCCCCN1C(=N)NC(CC(C)C)(c2ccccc2)C1=O` (stereo partly drawn) [Example 21, methyl [(1S)-2-({4-[2-imino-4-(2-methylpropyl)-5-oxo-4-phenylimidazolidin-1-yl]butyl}amino)-2-oxo-1-(pyridin-4-ylmethyl)ethyl]carbamate] is 0.046 µM; for `COC(=O)N[C@@H](Cc1ccncc1)C(=O)NCCCCN1C(=N)NC(CCC(C)C)(c2ccccc2)C1=O` (stereo partly drawn) [Example 22, methyl [(1S)-2-({4-[2-imino-4-(3-methylbutyl)-5-oxo-4-phenylimidazolidin-1-yl]butyl}amino)-2-oxo-1-(pyridin-4-ylmethyl)ethyl]carbamate] it is 0.06 µM.

`CC1(OC(=O)N[C@@H](Cc2ccccc2)C(=O)NCCCCN2C(=N)NC(c3ccccc3)(c3ccccc3)C2=O)CC1` [Example 23, N-[4-(2-imino-5-oxo-4,4-diphenylimidazolidin-1-yl)butyl]-N-alpha-{[(1-methylcyclopropyl)oxy]carbonyl}-L-phenylalaninamide]: the 50% inhibitory concentration (IC50) was 0.016 µM.
